Publication PMC10511244 (Nature, 2022)

Tested on: AS4.3, AS8.2, AS8.4, and AU2.1 TCRs
Experiment: CD69 upregulation with peptide-pulsed K562 cells expressing HLA-B*27:05
Assay type: cell-based, human
Details: SKW-3 T cells expressing AS4.3, AS8.2, AS8.4, and AU2.1 TCRs; n = 3 biological replicates

Sequence | T cell response (CD69 upregulation) when peptide presented by HLA-B*27:05-expressing K562 cells
LRQMLQAPH [MPP4^self] | robust T cell responses
GQVMVVAPR [RNASEH2B^self] | robust T cell responses
